The target of one experiment is HDAC1 (Homo sapiens, UniProt Q13547). Nature of the experiment: HDAC1 in vitro homogeneous fluorogenic deacetylase assay. Format: biochemical. The settings on record: read-out: IC50 HDAC1; SD in parentheses; duplicate; substrate MAZ1600 21 µM.
The next experiment has as its target HDAC2 (Homo sapiens, UniProt Q92769). As to the kind of experiment: HDAC2 in vitro homogeneous fluorogenic deacetylase assay. The experiment is classed as biochemical. The settings on record: read-out: IC50 HDAC2; SD in parentheses; duplicate; substrate MAZ1600 22 µM.
The next experiment addresses HDAC3 (Homo sapiens, UniProt O15379). As to the kind of experiment: HDAC3 in vitro homogeneous fluorogenic deacetylase assay. The note with it: read-out: IC50 HDAC3; SD in parentheses; duplicate; substrate MAZ1600 9 µM. The experiment is classed as biochemical.
Another experiment has as its target T1, HDAC6 (Homo sapiens, UniProt Q9UBN7).
T1 sequence (Q9UBN7 1-1215): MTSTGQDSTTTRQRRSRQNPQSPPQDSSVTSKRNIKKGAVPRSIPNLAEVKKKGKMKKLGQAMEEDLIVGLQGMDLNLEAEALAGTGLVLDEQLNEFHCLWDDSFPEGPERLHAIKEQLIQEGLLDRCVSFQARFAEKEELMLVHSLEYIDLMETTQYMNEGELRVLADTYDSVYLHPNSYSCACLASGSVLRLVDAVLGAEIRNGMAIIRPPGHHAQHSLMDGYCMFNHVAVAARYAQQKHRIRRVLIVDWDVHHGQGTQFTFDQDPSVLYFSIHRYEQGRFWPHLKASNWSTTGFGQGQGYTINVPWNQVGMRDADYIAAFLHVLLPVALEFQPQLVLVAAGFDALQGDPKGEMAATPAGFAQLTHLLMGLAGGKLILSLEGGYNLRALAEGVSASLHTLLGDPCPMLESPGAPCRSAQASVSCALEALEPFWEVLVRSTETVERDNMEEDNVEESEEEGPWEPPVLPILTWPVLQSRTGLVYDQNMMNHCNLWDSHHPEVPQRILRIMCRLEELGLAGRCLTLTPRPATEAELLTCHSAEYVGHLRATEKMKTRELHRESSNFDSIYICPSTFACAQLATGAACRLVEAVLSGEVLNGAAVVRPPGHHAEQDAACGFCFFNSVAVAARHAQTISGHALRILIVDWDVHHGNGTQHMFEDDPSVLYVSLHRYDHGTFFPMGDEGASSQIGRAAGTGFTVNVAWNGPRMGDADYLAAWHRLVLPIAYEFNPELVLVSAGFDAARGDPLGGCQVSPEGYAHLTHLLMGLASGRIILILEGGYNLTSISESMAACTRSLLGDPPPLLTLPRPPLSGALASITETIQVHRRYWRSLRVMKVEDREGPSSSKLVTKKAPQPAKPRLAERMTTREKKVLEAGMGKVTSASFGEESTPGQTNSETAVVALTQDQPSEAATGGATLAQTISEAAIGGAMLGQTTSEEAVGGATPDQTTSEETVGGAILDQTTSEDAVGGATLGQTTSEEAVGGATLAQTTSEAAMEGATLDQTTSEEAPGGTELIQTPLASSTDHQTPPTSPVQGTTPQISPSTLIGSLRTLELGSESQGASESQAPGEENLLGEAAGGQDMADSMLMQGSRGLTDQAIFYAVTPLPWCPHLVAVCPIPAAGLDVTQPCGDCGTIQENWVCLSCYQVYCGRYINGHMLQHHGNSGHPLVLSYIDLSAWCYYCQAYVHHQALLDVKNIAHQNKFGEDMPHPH
As to the kind of experiment: HDAC6 in vitro homogeneous fluorogenic deacetylase assay. Format: biochemical. The settings on record: read-out: IC50 HDAC6; SD in parentheses; duplicate; substrate MAZ1600 9 µM.

Another experiment concerns MCF7 cells. As to the kind of experiment: Propidium iodide staining, cell cycle and cell death in MCF7 cells. The settings on record: 1 µM, 48 hours, PI staining. The experiment is classed as cell-based.

Each structure is given as a SMILES string.

For orientation: IC50 means the concentration that gives 50% inhibition.

Chain of HDAC3 (O15379 whole entry): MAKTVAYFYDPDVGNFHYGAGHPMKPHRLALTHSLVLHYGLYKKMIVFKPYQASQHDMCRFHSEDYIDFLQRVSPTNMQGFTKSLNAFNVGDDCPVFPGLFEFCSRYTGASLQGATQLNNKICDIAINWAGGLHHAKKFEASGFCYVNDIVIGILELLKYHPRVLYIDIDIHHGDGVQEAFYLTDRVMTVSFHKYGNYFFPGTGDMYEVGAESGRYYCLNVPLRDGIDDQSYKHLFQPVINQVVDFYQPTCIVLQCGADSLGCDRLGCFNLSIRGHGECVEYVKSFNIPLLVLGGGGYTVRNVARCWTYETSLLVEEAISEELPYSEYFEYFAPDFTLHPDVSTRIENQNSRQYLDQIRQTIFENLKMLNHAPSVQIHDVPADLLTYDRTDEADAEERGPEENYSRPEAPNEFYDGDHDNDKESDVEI
Chain of HDAC3 (Q9Y618 395-489 partner limits assumed): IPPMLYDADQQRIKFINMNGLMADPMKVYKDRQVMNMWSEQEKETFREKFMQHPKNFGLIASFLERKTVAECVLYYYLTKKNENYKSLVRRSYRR
Chain of HDAC1 (Q13547 whole entry): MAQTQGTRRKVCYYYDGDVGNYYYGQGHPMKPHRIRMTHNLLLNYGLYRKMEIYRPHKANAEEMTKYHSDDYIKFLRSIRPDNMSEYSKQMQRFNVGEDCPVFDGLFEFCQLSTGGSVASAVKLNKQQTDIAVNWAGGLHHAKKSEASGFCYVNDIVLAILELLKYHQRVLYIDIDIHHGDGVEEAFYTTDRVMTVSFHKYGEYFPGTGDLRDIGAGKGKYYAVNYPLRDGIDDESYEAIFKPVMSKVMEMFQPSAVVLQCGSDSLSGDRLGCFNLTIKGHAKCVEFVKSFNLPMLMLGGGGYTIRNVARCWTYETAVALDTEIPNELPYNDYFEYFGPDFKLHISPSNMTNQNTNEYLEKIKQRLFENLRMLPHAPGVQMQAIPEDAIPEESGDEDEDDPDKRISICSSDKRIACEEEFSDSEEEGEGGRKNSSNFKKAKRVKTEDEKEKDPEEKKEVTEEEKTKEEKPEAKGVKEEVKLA
Chain of HDAC2 (Q92769 whole entry): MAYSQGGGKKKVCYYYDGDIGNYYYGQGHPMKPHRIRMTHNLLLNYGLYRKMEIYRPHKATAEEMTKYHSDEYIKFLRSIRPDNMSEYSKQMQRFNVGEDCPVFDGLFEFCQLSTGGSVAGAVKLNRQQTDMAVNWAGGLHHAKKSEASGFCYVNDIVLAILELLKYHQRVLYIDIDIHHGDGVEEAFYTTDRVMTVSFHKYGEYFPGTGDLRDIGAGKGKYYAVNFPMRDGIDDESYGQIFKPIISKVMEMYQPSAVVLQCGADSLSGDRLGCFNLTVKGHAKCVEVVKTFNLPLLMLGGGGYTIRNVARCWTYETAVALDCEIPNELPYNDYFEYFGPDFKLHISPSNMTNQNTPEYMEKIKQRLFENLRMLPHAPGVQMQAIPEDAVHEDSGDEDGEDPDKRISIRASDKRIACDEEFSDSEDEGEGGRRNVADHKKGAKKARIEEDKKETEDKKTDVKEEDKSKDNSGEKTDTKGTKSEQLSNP

As for `O=C(CCCCCCC(=O)N[c-]1cccc1)NO.[Fe+2].c1cc[cH-]c1` [Compound 7, N^1-Hydroxy-N^8-ferrocenyloctanediamide], the IC50 at HDAC1 is 0.011 µM; at HDAC2, 0.011 µM; at HDAC3, 0.018 µM; at HDAC6 it was 0.0008 µM. Also, the “cell cycle arrest and cell death” value with MCF7 cells was “induced cell cycle arrest and cell death”.
